Measurements taken from patent US20260266837A1, “Methods for Cancer Recurrence Detection and Treatment Thereof” (Institut Curie, priority 2022, published 2026).

Tests used:
MDA-MB-468 cells = experiment: Lineage barcode frequencies and diversity under 5-FU with EZH2i; type: cell-based, human
Excerpt: Lentivirus packaging and cell transduction. Lentivirus was produced by transfecting the barcode plasmids pRRL-CMV-GFP-BCv2Ascl and p8.9-QV and pVSVG into HEK293T cells as previously described^30. MDA-MB-468 cells from ATCC were infected at passage 11 with lentivirus produced from the barcode library (pRRL-CMV-GFP-BCv 2Ascl) which includes 18206 different barcodes of 20 bp of a random stretch, at a low multiplicity of infection (MOI 0.1) to minimize the number of cells marked by multiple barcodes. Three weeks after transduction, cells were sorted for GFP expression to select cells with barcode insertion, and used for drug treatment.
Bulk lineage barcode library preparation and sequencing. Lineage barcodes are recovered by isolating genomic DNA from cells of interest (NucleoSpin Tissue, Mini kit for DNA from cells and tissue, Macherey Nagel, Ref: 740952.50). From the isolated genomic DNA, barcodes are amplified with three nested PCR steps as decribed in^30 (see Extended Table 1 for primer sequence). In short, after a first specific PCR for the common region of the lineage barcodes, the amplified material was prepared for sequencing by addition of the illumina sequencing adaptaters and indexing and purification. Sequencing was done in order to obtain 50 reads, on average, per barcoded cell.
Single-cell lineage barcode extraction from 10× datasets. […] To avoid running scripts on all reads we: 1. used samtools to extract all unmapped reads from the 10× output bam file, 2. used awk to take reads with either a 3′ or 5′ 20 bp match to the constant flanking region of the barcode allowing one mismatch, 3. retained only reads with both a 10× cell barcode and 10× UMI. We then located the 20 bp match to one of the constant flanking regions allowing one mismatch (but filtered out reads where a mismatch was in the first or last base to ensure the barcode is at the expected position). We then further required a 4 bp exact match on the other side of the barcode, and then extracted the 20 bp viral barcode, read name, 10× cell barcode and 10× UMI.
To assign one viral barcode to each 10× cell barcode, we determined a consensus viral barcode for each UMI. For each position in the barcode we returned the most frequently observed base and the proportion of reads supporting this consensus. Barcodes associated with a 10× CB-UMI pair were filtered if the proportion of reads supporting a position was ≤0.5 at ≥3 positions. […]
Bulk barcode pre-processing. […] In brief, using R-3.4.0 (R Development Core Team (2019) http://www.R-project.org), raw reads were first filtered for perfect to the input index-and common-sequences using XCALIBR (https://github.com/NKI-GCF/xcalibr) and filtered against the barcode reference list. […]

[1] = tested on: MDA-MB-468 cells, persister genes; experiment: scRNA-seq expression changes induced by EZH2i-1 in the absence of chemotherapy; type: cell-based, human
Protocol: Cell lines, culture conditions and drug treatments. MDA-MB-468 cells were cultured in DMEM (Gibco-BRL, Ref: 11966025), supplemented with 10% heat-inactivated fetal calf serum (Gibco-BRL, Ref: 10270-106). HCC38 and BT20 cell lines were cultured in RPMI 1640 (Gibco-BRL, Ref: 11875085), supplemented with 10% heat-inactivated fetal calf serum. […] Cells were treated with 5 μM of 5-FU (Sigma, Ref: F6627) alone or in combination with KDM6A/Bi or EZH2i for indicated days. For EZH2i, cells were pretreated with UNC 1999, UNC 2400 or GSK 126 for 10 days before the addition of 5-FU for an additional 21 days (FIG. 4 and Extended FIG. 8).
Single-cell RNA-seq. For each single cell suspension (DMSO-DO- #1, 5-FU-D33- #1, 5-FU-D214- #1, 5-FU-D67- #2, 5-FU-D171- #2, 5-FU-D50- #3, 5-FU-D77- #3 and 5-FU-D202- #3) or PDX dissociated cells (PDX_95, PDX_39 or PDX_172, untreated and persister cells), approximately 3,000 cells were loaded on a Chromium Single Cell Controller Instrument (Chromium Single Cell 3′v3, 10× Genomics, Ref: PN-1000075) according to the manufacturer's instructions. Samples and libraries were prepared according to the manufacturer's instructions. Libraries were sequenced on a NovaSeq 6000 (Illumina) in PE 28-8-91 with a coverage of 50,000 reads/cell.
Single-cell RNA-seq analysis. The scRNA-seq sequencing files were preprocessed using the cellRanger pipeline. For PDX samples, files were aligned against hg19 and mm10 genomes and only cells with a majority of human reads were retained for the analysis. For the MDA-MB-468 human cell line, sequences were aligned against the hg38 genome only. Cells with less than 3,000 […] for MDA-MB-468 or 2,500 for PDX or more than 8,000 detected genes, or more than 100,000 reads were filtered out, as well as cells with a percent of mitochondrial reads greater than 15% or a percentage of spike in greater than 5%. Normalization, dimensionality reduction and Louvain clustering was done using monocle3 (v0.2.2)^52 keeping the first 50 Principal Components (PC). Cell cycle was determined for each cell using Seurat (v3.1.5)^53. […] Differentially expressed genes were obtained by comparing raw gene expression values using edgeR GLM statistical model^54. […] For MDA-MB-468 samples, as the number of cells was high, a subset of 500 cells per cluster was subsampled from each cluster for the differential analysis and downstream steps. Intra-cluster correlation scores were calculated using Pearson's correlation score, with a random subsampling of n=500 cells per cluster.

correlation scores between lineage frequencies in 5-FU and DMSO treated population (MDA-MB-468 cells; co-treatment with 5-FU, bulk lineage barcodes): increased correlation scores
activation of persister genes with depletion of H3K27me3 upon 5-FU treatment ([1]; 23/37 genes, no chemotherapy): 62%
SMILES: CCCc1cc(C)[nH]c(=O)c1CNC(=O)c1cc(-c2ccc(N3CCN(C(C)C)CC3)nc2)cc2c1cnn2C(C)C [EZH2i-1]
diversity in lineage barcodes in CDH2+ persister populations (MDA-MB-468 cells; R3 cluster, 5-FU with versus without EZH2i-1, p<10^-4): over 2 fold-increase
over-expression of persister genes independently of any H3K27me3 enrichment in untreated cells ([1]; 78/131 genes, no chemotherapy): 60%
expression of candidate master TFs FOXQ1, FOSL1 and N 2RF2 ([1]; EZH2i-1 treatment): re-expressed by EZH2i-1 treatment
Pearson correlation of expression fold-changes induced by EZH2i-1 with those induced by chemotherapy in persister cells ([1]; early time points, D33 versus D0): 0.71
Pearson correlation of expression fold-changes induced by EZH2i-1 with changes in resistant cells ([1]; resistant cells): 0.31
